Data as given in patent US20250325500A1, “USE OF 5-METHOXY-2-AMINOINDAN ("MEAI") IN METHODS FOR TREATING COCAINE ADDICTION” (Clearmind Medicine Inc., priority 2022, published 2025).

How the values were obtained:
Type in all cases: in vivo, rat
rats [1] = assay: Side effects observed in rats dosed with MEAI during CPP conditioning; conditions: anxiety, diarrhea, secretion of vaginal plug
Description: (§1) In the CPP assay, the rats learned to associate a reward with an environmental cue. Two groups of rats were put through a three-day baseline period during which each rat was allowed to freely move during 20 minutes from a striped to a smooth compartment in a closed arena. Time measurements were taken to determine which compartment the rat spent more time in (i.e., preferred). Baseline data was determined as an average duration of time spent in each compartment. After the baseline period, a training period of 5 days was conducted in which rats were injected with saline (I.P.) in the morning and placed in the preferred compartment for 20 minutes. Four hours after the saline injection, cocaine (15 mg/kg I.P.) or MEAI (4 doses; 20, 10, 5 and 2.5 mg/kg I.P.) was injected and the rat was placed in the less preferred compartment for 20 minutes. On the 6th day, a CPP test was conducted (identical to the baseline period) to determine if MEAI imparts a reward-like effect similar to cocaine. The duration time spent in each compartment was calculated as the difference between the baseline time and the testing time (seconds) as previously described.
We started testing with 20 mg/kg of MEAI. […] Due to these side effects, we decided to test lower doses of MEAI as opposed to higher doses. Accordingly, the following dose tested was 10 mg/kg of MEAI. 51% of the rats receiving this dose had side effects, including anxiety, aggressiveness, piloerection, tremors low body posture, diarrhea, and secretion of “vaginal plug,” with a trend towards improved symptoms, although not statistically significant, compared to the 20 mg/kg dose. […] Overall, the mean that was most negative was for the dose 5 mg/kg, and therefore we decided to test the efficacy of this dose as a treatment for cocaine preference in rats.

[2] = system: cocaine preference in rats; assay: CPP test, MEAI as a treatment for cocaine preference in rats; conditions: rats conditioned with cocaine 15 mg/kg
Description: (§2) Two groups were tested: One group received MEAI (four different doses), while the second group received cocaine in each conditioning day. Additionally, some rats that received cocaine were treated with MEAI on the test day to determine if MEAI has a treatment-like effect.
as §1, with “Four hours after the saline injection, cocaine (15 mg/kg I.P.) or MEAI (4 doses; 20, 10, 5 and 2.5 mg/kg I.P.) was injected and the rat was placed in the less preferred compartment for 20 minutes. On the 6th day, a CPP test was conducted (identical to the baseline period) to determine if MEAI imparts a reward-like effect similar to cocaine.” left out, “described. […]” for “described.”
The two groups were divided as values below 100 seconds in a non-preferred compartment (MEAI A) and above 100 seconds (MEAI B). […] The behavioral data were analyzed with Ordinary one-way ANOVA. Data was expressed as mean±SEM and a probability value of […] was considered significant. n=5-12 rats per group. […]

rats [3] = assay: Conditioned Place Preference (CPP) model, reward-like effect of MEAI; conditions: 5 conditioning days, test on 6th day, difference from baseline
Description: as §2, §1
In the first part of this study, we examined whether administration of MEAI in four different doses […] reward.

COc1ccc2c(c1)CC(N)C2 (stereo not shown) [MEAI, 5-methoxy-2-aminoindan]
rats presenting side effects (rats [1]; MEAI 2.5 mg/kg I.P.): 21.4% | rats presenting side effects (rats [1]; MEAI 5 mg/kg I.P.): 20.2% | rats presenting side effects (rats [1]; MEAI 10 mg/kg I.P., aggressiveness, piloerection, tremors, low body posture): 51% | rats presenting side effects (rats [1]; MEAI 20 mg/kg I.P., aggressiveness, piloerection, tremors, low body posture): 65.7% | decrease of reward in cocaine-conditioned rats, 5 mg/kg versus 10 mg/kg ([2]; MEAI 5 mg/kg i.p. compared with 10 mg/kg i.p. on test day (FIG. 2)): better results in decreasing reward | compartment preference of cocaine-conditioned rats after treatment ([2]; MEAI 5 mg/kg i.p. on test day, 10 min before test): mixed | duration of time spent in a non-preferred place (reward) (rats [3]; MEAI 2.5 mg/kg I.P.): negative | duration of time spent in a non-preferred place (reward) (rats [3]; MEAI 5 mg/kg I.P.): negative | duration of time spent in a non-preferred place (reward) (rats [3]; MEAI 10 mg/kg I.P.): rewarding effect | duration of time spent in a non-preferred place (reward) (rats [3]; MEAI 20 mg/kg I.P.): low reward
